One assay has as its target T1, eEF2K (Homo sapiens, UniProt O00418).
T1 construct: in the immortalized epithelial breast cell lines, MCF10A; host or cells: MCF10A immortalized breast epithelial cells
T1 sequence (O00418 1-725): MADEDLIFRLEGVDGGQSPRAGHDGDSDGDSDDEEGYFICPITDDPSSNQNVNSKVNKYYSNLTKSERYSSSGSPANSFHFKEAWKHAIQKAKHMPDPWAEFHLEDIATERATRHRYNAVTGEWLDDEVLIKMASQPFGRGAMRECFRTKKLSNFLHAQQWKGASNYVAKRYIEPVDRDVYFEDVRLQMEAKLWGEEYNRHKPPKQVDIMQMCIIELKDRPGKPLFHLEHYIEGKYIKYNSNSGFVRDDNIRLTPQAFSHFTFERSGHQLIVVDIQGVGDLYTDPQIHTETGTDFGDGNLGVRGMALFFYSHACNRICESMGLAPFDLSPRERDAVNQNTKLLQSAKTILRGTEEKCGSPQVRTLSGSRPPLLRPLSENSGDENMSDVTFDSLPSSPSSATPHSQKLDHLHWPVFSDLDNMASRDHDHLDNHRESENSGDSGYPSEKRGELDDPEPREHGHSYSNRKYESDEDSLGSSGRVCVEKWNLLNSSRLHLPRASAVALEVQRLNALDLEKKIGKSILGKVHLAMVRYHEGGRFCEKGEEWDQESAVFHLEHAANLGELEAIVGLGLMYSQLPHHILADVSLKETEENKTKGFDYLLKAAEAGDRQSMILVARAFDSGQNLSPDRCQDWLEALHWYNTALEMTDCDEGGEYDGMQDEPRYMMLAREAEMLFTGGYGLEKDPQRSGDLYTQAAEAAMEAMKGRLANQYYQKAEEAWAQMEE
Nature of the assay: EF2K cell-based assay (P-EF2 AlphaLISA, 2-deoxyglucose stimulated MCF10A cells). As to conditions: 2.5 mM 2-deoxyglucose 4 h, phosphorylation of EF2 at Thr 56, pIC50 = -log IC50 (M), read-out: eEF2K_C_PThr56 pIC50 (converted). The method, then: In this assay, 2.5 mM 2-deoxyglucose was used to deplete intracellular ATP and activate 5′ adenosine monophosphate-activated protein kinase (AMPK) in the immortalized epithelial breast cell lines, MCF10A. MCF 10A cells were purchased from ATCC (CRL-10317).
MCF10A cells are seeded at a density of 1.25×10^5 Cells/ml at 100 μl/well in a 96-well plate and incubated for 24 hours (37° C., 5% CO2). Compound is added for 1 hour, and cell are stimulated with 2.5 mM of 2-deoxy-glucose for 4 hours. Medium is then removed, and cells are lysed in an ice-cold buffer M-PER (Thermo Scientific, 78501), containing protease and phosphatase inhibitors. P-EF2 levels are determined in these lysates using the P-EF2 AlphaLISA described above.

The target in a further assay is T2, EF2K (Homo sapiens, UniProt O00418).
T2 construct: host or cells: LN-229 glioblastoma cell lysate
T2 sequence (O00418 1-725): T1 sequence (O00418 1-725)
Nature of the assay: Biochemical EF2K lysate-based kinase assay (AlphaLISA p-eEF2 Thr56). As to conditions: LN-229 cell lysates, 10 mM ATP, pH 6.6; pIC50 = -log IC50 (M); read-out: eEF2K_C_alphalisa pIC50 (converted). The source says:
LN-229 cells were purchased from ATCC (CRL-2611); these are glioblastoma cells. Cell lysates from LN229 were used in this kinase assay to provide both the kinase and the substrate (EF2). The AlphaLISA p-eEF2 (Thr56) detection assay was developed using a sandwich assay format with two specific antibodies recognizing different epitopes of the target, including one antibody against the phosphorylation site of interest. One anti-eEF2 antibody was conjugated onto AlphaLISA Acceptor beads, while the second antibody was biotinylated and captured by streptavidin coated Donor beads.
Compound was mixed with LN-229 cell lysates in the presence of a kinase buffer (e.g. HEPES) at a pH of 6.6, containing 10 mM Mg^2+ (e.g. magnesium acetate) and 10 mM adenosine-tri-phosphate (ATP) and incubated at room temperature for 15 minutes. The kinase reaction was stopped with excess ethylenediaminetetraacetic acid disodium salt and the biotinylated-anti phospho eEF2 antibody (3 nM) was added for 1 hour. Then the anti-EF2 acceptor beads (10 μg/ml) as well as the streptavidin coated donor beads (20 μg/ml) were added for 1 hour, and the AlphaLISA signal was measured in an Envision instrument once, left overnight, and measured again for the final read.
(In Alpha technology, singlet oxygen from a donor bead excites a nearby acceptor bead.)

Each structure is given as a SMILES string. Some results are limits rather than exact numbers.

Consider `CC1c2cccc(c2F)Nc2cc(ccn2)-c2cnc(nc2)N2CC(O)CC2CCNC(=O)C2(CC2)N2CCN1CC2` (stereo not shown) [Compound 52], for which the values for the IC50 on eEF2K and at EF2K were 7.59e-08 M and 5.37e-09 M, respectively.

Consider `O=C1CN2CC(C2)Oc2cccc(c2)Nc2cc(ccn2)-c2cnc(nc2)NCCCN1` [Compound 92], for which the IC50 was 1.17e-06 M at eEF2K and 1.26e-07 M at EF2K.

`CN1c2cccc(c2)Nc2cc(ccn2)-c2cnc(nc2)NCCCNC(=O)C2(CC2)N2CCC1CC2` [Compound 102]: the IC50 was 1.32e-06 M at eEF2K and 8.13e-08 M on EF2K.

For the molecule `O=C1CN2CCC(CC2)Oc2cccc(c2)Nc2cc(ccn2)-c2cnc(nc2)N2CC(O)CC2CCN1` (stereo not shown) [Compound 99], the values for the IC50 on eEF2K and at EF2K were 1.07e-06 M and 3.09e-08 M, respectively.

Regarding `CC(=O)NCCCOCC1CN2CCN1Cc1cccc(c1)Nc1cc(ccn1)-c1cnc(nc1)NCCCNC(=O)C2` (stereo not shown) [Compound 149], the figures for the IC50 at eEF2K and at EF2K were above 1e-05 M and 6.31e-06 M, respectively.

With `NCCCCC1C(=O)NCCCNc2ncc(cn2)-c2ccnc(c2)Nc2cccc(c2)CN2CCN1CC2` (stereo not shown) [Compound 113], the IC50 at eEF2K was 5.5e-06 M.

Regarding `O=C1NCCC2CC(O)CN2c2ncc(cn2)-c2ccnc(c2)Nc2cccc(c2)CN2CCN(CC2)C12COC2` (stereo not shown) [Compound 63], the values for the IC50 at eEF2K and on EF2K were 1.74e-06 M and 1.95e-08 M, respectively.

In the case of `[N-]=[N+]=N[C@@H]1C[C@H]2CCNC(=O)CN3CCN(CC3)Cc3cccc(c3)Nc3cc(ccn3)-c3cnc(nc3)N2C1` [Compound 82], the IC50 on eEF2K was 7.08e-07 M; at EF2K it was 1.86e-08 M.

As for `CC1NCCNC(=O)CN2CCN(CC2)Cc2cccc(c2)Nc2cc(ccn2)-c2cnc1nc2` (stereo not shown) [Compound 134], the IC50 at eEF2K is above 1e-05 M; at EF2K, 1.12e-05 M.

For `CC(=O)NCCCOCC1CN2CCN1Cc1cccc(c1)Nc1cc(ccn1)-c1cnc(nc1)NCCCNC(=O)C2` (stereo not shown) [Compound 115], the results for the IC50 on eEF2K and on EF2K were 4.37e-07 M and 1.51e-07 M, respectively.

Consider `NC1CC2CCNC(=O)C3(CC3)N3CCN(CC3)Cc3cccc(c3)Nc3cc(ccn3)-c3cnc(nc3)N2C1` (stereo not shown) [Compound 85], for which the IC50 is 1.1e-06 M at eEF2K and 2.75e-08 M on EF2K.

`O=C1CN2CCCC(CC2)Oc2cccc(c2)Nc2cc(ccn2)-c2cnc(nc2)NCCCN1` (stereo not shown) [Compound 94]: the IC50 is 6.76e-07 M on eEF2K and 6.61e-08 M at EF2K.

With `O=C1CN2CCN(CC2)Cc2cccc(c2)Nc2cc(ccn2)-c2cnc(nc2)C2CCCN2CCN1` (single isomer, unassigned) [Compound 138], the IC50 on EF2K is around 1.58e-06 M.

As for `O=C1CN2CCN(CC2)Cc2cccc(c2)Nc2cc(ccn2)-c2ccc(nc2)N2CCCC2CCN1` (stereo not shown) [Compound 141], on eEF2K, the IC50 was around 3.63e-06 M.

As to `O=C1CN2CCN(CC2)Cc2cccc(c2)Nc2cc(ccn2)-c2cnc(nc2)N2CC=CC2CCN1` (stereo not shown) [Compound 81], the IC50 at eEF2K was 3.09e-07 M; at EF2K it was 4.9e-09 M.

Turning to `O=C1NCCC2CC(O)CN2c2ncc(cn2)-c2ccnc(c2)Nc2cccc(c2)OC2CCN(CC2)C12CC2` (stereo not shown) [Compound 97], the IC50 on eEF2K was 3.31e-07 M; on EF2K, 1.82e-09 M.

For the molecule `O=C1NCCCNc2ncc(cn2)-c2ccnc(c2)Nc2cccc(c2F)CN2CCN(CC2)C12CC2` [Compound 20], the IC50 on eEF2K is 1.66e-07 M; at EF2K, 3.98e-09 M.

Consider `O=C1NCCCNc2ncc(cn2)-c2ccnc(c2)Nc2cccc(c2)OC2CCN(CC2)C12CC2` [Compound 95], for which the IC50 at eEF2K is around 6.46e-07 M; on EF2K, 6.76e-09 M.

On to `CCCN1CCNC(=O)CN2CCN(CC2)Cc2cccc(c2)Nc2cc(ccn2)-c2ccc(nc2)C1` [Compound 147], for which the values for the IC50 on eEF2K and on EF2K were 1.05e-06 M and 3.98e-07 M, respectively.

Consider `O=C1CN2CCN(CC2)Cc2cccc(c2)Nc2cc(ccn2)-c2cnc(nc2)N2CCC2CCN1` (stereo not shown) [Compound 49], for which the IC50 on eEF2K is above 1e-05 M; on EF2K, 2.51e-05 M.

In the case of `O=C1NCCC2CC(O)CN2c2ncc(cn2)-c2ccnc(c2)Nc2cccc(c2F)OC2CCN(CC2)C12CC2` (stereo not shown) [Compound 96], the IC50 is 8.13e-08 M on eEF2K and 3.98e-09 M on EF2K.

As to `O=C1NCCC2CC(O)CN2c2ncc(cn2)-c2ccnc(c2)Nc2cccc(c2)CN2CCN(CC2)C12COC2` (stereo not shown) [Compound 64], the results for the IC50 on eEF2K and at EF2K were 3.89e-07 M and 5.13e-09 M, respectively.

On to `O=C1CN2CCC(CC2)Oc2cccc(c2F)Nc2cc(ccn2)-c2cnc(nc2)NCCCN1` [Compound 91], for which the IC50 is 7.24e-07 M on eEF2K and 1.35e-08 M at EF2K.

Consider `COCCN1CCNC(=O)CN2CCN(CC2)Cc2cccc(c2)Nc2cc(ccn2)-c2cnc(nc2)C1` [Compound 129], for which the IC50 at eEF2K was above 1e-05 M; on EF2K, 2.69e-05 M.

Take `O=C1CN2CCN(CC2)Cc2cc(ccn2)Nc2cc(ccn2)-c2cnc(nc2)N2CC(O)CC2CCN1` (stereo not shown) [Compound 51]: the IC50 on eEF2K was around 1e-05 M.

In the case of `O=C1CN2CCC(C2)Oc2cccc(c2)Nc2cc(ccn2)-c2cnc(nc2)NCCCN1` (stereo not shown) [Compound 93], the IC50 at eEF2K is 6.31e-07 M; at EF2K, 7.94e-08 M.

Regarding `CC1c2cccc(c2F)Nc2cc(ccn2)-c2cnc(nc2)NCCCNC(=O)C2(CC2)N2CCN1CC2` (single isomer, unassigned) [Compound 12], the IC50 on eEF2K is above 1e-05 M; at EF2K, 1.45e-07 M.

Consider `CC1c2cccc(c2)Nc2cc(ccn2)-c2cnc(nc2)NCCCNC(=O)C2(CC2)N2CCN1CC2` (single isomer, unassigned) [Compound 22], for which the results for the IC50 on eEF2K and on EF2K were 3.63e-07 M and around 1.05e-08 M, respectively.

In the case of `CN1CCCNc2ccc(cn2)-c2ccnc(c2)Nc2cccc(c2)CN2CCN(CC2)CC1=O` [Compound 69], the values for the IC50 on eEF2K and at EF2K were above 3.02e-05 M and 1.41e-05 M, respectively.

For `O=C1CN2CCN(CC2)Cc2cccc(c2)Nc2cc(ccn2)-c2cnc(nc2)NC(CC2CC2)CCN1` (stereo not shown) [Compound 125], the values for the IC50 at eEF2K and at EF2K were above 1e-05 M and 5.75e-06 M, respectively.

As to `CC1NCCNC(=O)CN2CCN(CC2)Cc2cccc(c2)Nc2cc(ccn2)-c2cnc1nc2` (stereo not shown) [Compound 133], the IC50 on eEF2K was around 1e-05 M; at EF2K, above 3.02e-05 M.

In the case of `CN1c2cccc(c2F)Nc2cc(ccn2)-c2cnc(nc2)NCCCNC(=O)C2(CC2)N2CCC1CC2` [Compound 103], the results for the IC50 at eEF2K and on EF2K were 1.62e-06 M and 1.91e-07 M, respectively.

Take `N#CC1CC2CCNC(=O)C3(CC3)N3CCN(CC3)Cc3cccc(c3)Nc3cc(ccn3)-c3cnc(nc3)N2C1` (stereo not shown) [Compound 79]: the IC50 on eEF2K was 1.15e-06 M; on EF2K, 9.77e-08 M.

For the molecule `CC1c2cccc(c2F)Nc2cc(ccn2)-c2cnc(nc2)NCCCNC(=O)C2(CC2)N2CCN1CC2` (single isomer, unassigned) [Compound 11], the figures for the IC50 on eEF2K and on EF2K were 2.88e-07 M and 2.75e-09 M, respectively.

Consider `O=C1CN2CCN(CC2)Cc2cccc(c2)Nc2cc(ccn2)-c2cnc(nc2)N2CC(F)CC2CCN1` (stereo not shown) [Compound 80], for which the values for the IC50 on eEF2K and at EF2K were 6.31e-07 M and 1e-08 M, respectively.

Take `O=C1CN2CCN(CC2)Cc2cccc(c2)Nc2cc(ccn2)-c2cnc(nc2)C2CCCN2CCN1` (single isomer, unassigned) [Compound 139]: the IC50 was above 1e-05 M on eEF2K and 7.59e-06 M at EF2K.

As for `O=C1NCCCNc2ncc(cn2)-c2ccnc(c2)Nc2cccc(c2F)OC2CCN(CC2)C12CC2` [Compound 89], the IC50 at eEF2K was 3.24e-07 M; at EF2K, around 4.47e-09 M.

Consider `O=C1CN2CCN(CC2)Cc2cc(ccc2F)Nc2cc(ccn2)-c2cnc(nc2)N2CC(O)CC2CCN1` (stereo not shown) [Compound 50], for which the IC50 at eEF2K is 3.55e-07 M; on EF2K, 1.02e-08 M.

As for `CN1c2cccc(c2F)Nc2cc(ccn2)-c2cnc(nc2)N2CC(O)CC2CCNC(=O)C2(CC2)N2CCC1CC2` (stereo not shown) [Compound 105], the IC50 on eEF2K was 7.94e-07 M.

The record behind these values is patent US20170022201A1, “MACROCYLIC PYRIDINE DERIVATIVES” (Janssen Pharmaceutica NV, priority 2014, published 2017).
